Reference: patent publication US9920357B2, “Systems and methods for identifying cosmetic agents for hair/scalp care compositions” (The Procter & Gamble Company, priority 2012, dated 2018)

How the values were obtained:
hair count = assay: Clinical studies of hair count; type: in vivo
MAOB [1] = assay: MAOB reporter assay; type: cell-based; conditions: active = >=60% inhibition and dose response
Experimental: (§1) Affy signatures yielded 60 materials that were plated and provided for evaluation in a MAOB enzyme inhibition assay and 46 pure material were tested in a MAOB reporter assay.

MAOB [2] = biological target: T1, MAOB (Homo sapiens, UniProt P27338); assay: MAOB enzyme inhibition assay; type: biochemical; conditions: active = >=40% inhibition and dose response
T1 sequence (P27338 1-520): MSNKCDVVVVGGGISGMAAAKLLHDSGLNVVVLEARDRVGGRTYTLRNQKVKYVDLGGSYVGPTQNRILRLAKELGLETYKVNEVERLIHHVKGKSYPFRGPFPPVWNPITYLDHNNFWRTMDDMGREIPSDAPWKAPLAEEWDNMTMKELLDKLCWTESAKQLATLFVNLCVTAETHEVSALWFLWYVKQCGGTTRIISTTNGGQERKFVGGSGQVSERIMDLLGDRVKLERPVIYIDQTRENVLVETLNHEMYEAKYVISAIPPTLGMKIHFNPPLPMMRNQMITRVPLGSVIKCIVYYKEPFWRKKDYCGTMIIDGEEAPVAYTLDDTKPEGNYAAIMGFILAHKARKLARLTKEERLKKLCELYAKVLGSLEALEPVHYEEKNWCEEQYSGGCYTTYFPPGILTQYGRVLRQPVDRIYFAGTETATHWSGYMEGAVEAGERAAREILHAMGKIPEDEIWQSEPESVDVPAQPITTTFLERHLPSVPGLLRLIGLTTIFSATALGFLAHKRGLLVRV
Experimental: as §1

activity in MAOB enzyme inhibition assay (MAOB [2])	Compound	hair count (hair count)	activity in MAOB reporter assay (MAOB [1])
–	O=c1cc(-c2ccc(O)cc2)oc2cc(O)cc(O)c12 [Apigenin]	significant hair count benefit	–
active and hit	CCN(CC)CCCC(C)Nc1c2ccc(Cl)cc2nc2ccc(OC)cc12 (stereo not drawn) [quinacrine]	–	active and hit
